Patent publication US20240148714A1, “Triple Negative Breast Cancer Treatment Method” (Exelixis, Inc., priority 2016, published 2024)
“And” between values parts separate entries of the source, which are not always exact repeats. Equal entries are not always repeated.

System: metastatic TNBC
Assay: Phase II study of cabozantinib in metastatic TNBC: objective response (RECIST 1.1), clinical benefit, PFS
Assay type: in vivo, human
Method: Experimental design: In this single-arm, two-stage phase 2 study, patients with metastatic TNBC with measurable disease by RECIST and up to 3 lines of prior chemotherapy for metastatic disease received cabozantinib 60 mg daily on a 21-day cycle. Patients were restaged 6 weeks following treatment initiation and every 9 weeks thereafter. The primary endpoint was objective response rate (ORR). Predefined secondary endpoints included progression free survival (PFS) and toxicity. Here, we examined cellular biomarkers using flow cytometry in serial blood samples collected at days 0 (baseline/pre-treatment), 8, 22, 43, and 64 of cabozantinib treatment. Mixed effect models were used to evaluate the changes of biomarker levels over time from baseline to day 64. Wilcoxon signed rank test were used to evaluate whether the change of biomarker levels from baseline to day 8 were different by clinical benefit. Adjusted p-values controlling false discovery rate were used to adjust for multiple comparisons.
Study Design and Treatment: As indicated, this was a single-arm, two-stage phase II study assessing the efficacy of cabozantinib monotherapy in patients with mTNBC. Treatment consisted of oral dosing of cabozantinib at 60 mg daily over a 21-day cycle. Patients underwent radiographic restaging at 6 weeks and every 9 weeks thereafter. Patients with complete or partial RECIST responses continued to receive study treatment, whereas those with progressive disease were taken off study. Dose reductions for toxicity occurred if patients experienced grade 3 or 4 neutropenia or thrombocytopenia, or nonhematologic adverse events. From the starting dose of 60 mg daily, doses were reduced as needed to 40 and 20 mg daily. For the purposes of determining the effect of cabozantinib treatment on pain and analgesic medication use, pain was assessed by a participant-reported questionnaire, and daily analgesic medication usage was recorded. These were completed at baseline and during week 3, 6, and every 6 weeks thereafter until the date of the participant's last follow-up visit.
The primary endpoint was the activity of cabozantinib, as defined by objective response rate (ORR) in patients with mTNBC. Predefined secondary endpoints included progression-free survival (PFS), toxicity, and pain. Correlative studies included analysis of MET and phospho-MET expression in archival tumor tissue, and molecular and cellular biomarkers of cabozantinib. Cellular biomarkers were examined using flow cytometry in serial blood samples collected at days 0 (baseline/pre-treatment), 8, 22, 43, and 64 of cabozantinib treatment. Mixed effect models were used to evaluate the changes of biomarker levels over time from baseline to day 64. Wilcoxon signed rank test were used to evaluate whether the change of biomarker levels from baseline to day 8 were different by clinical benefit. Adjusted p-values controlling false discovery rate were used to adjust for multiple comparisons.
Statistical Analysis: This study used Simon optimal two-stage design to control type I error at 10% and have at least 90% power to detect the acceptable response rate. By study design, 13 participants were to be enrolled in the first stage. If there was at least 1 response, accrual was to continue to the second stage, where an additional 22 patients were to be enrolled. If there were at least 4 responses among the 35 total patients, the regimen was to be considered worthy of further study. With a true response rate of 5%, the chance that the regimen would be declared worthy of further study was 10%, and with a true response rate of 20%, the chance that the regimen would be declared worthy of further study was 90%.
Objective response was evaluated by using RECIST1.1. […] Objective response rate was reported with 95% confidence interval (CI) for the two stage designs. PFS and 95% CI were described using Kaplan-Meier methods. […]

## COc1cc2nccc(Oc3ccc(NC(=O)C4(C(=O)Nc5ccc(F)cc5)CC4)cc3)c2cc1OC [cabozantinib]
60 mg daily, 35 patients
  clinical benefit rate (PR+SD) at 15 weeks: 34%
  median PFS: 2.0 months
60 mg daily, 35 patients, as previously reported (ASCO 2015)
  objective response rate (ORR): 11%
60 mg daily, 35 patients, confirmed PR, RECIST 1.1
  objective response rate (ORR): 9%
17 cycles and 8 cycles of protocol therapy
  time on treatment of individual patients with PR: 11.7 months and 6.5 months
35 patients
  Best overall response: Not evaluated due to toxicity: 1 (3) n (%)
  Best overall response: PD: 11 (31) n (%)
  Best overall response: PR: 3 (9) n (%)
  Best overall response: SD: 20 (57) n (%)
  Best overall response: SD <15 weeks: 11 (31) n (%)
  Best overall response: SD ≥15 weeks: 9 (26) n (%)
High baseline sMET (>795 ng/mL median value)
  median PFS: 3.3 months
human, in vivo
  patients off treatment due to progressive disease: 91%
Included in PD
  patients with clinically progressive disease before protocol specified tumor assessment: ^aIncluding 7 patients(20%) with clinically progressive disease before protocol specified tumor assessment.
Low baseline sMET (<795 ng/mL)
  median PFS: 1.3 months
Of 35 patients
  patients who achieved PR: 3 patients
